# Key:
# barnyardgrass = assay: Test A pre-/postemergence herbicide test; type: in vivo, Echinochloa crus-galli
# Summary of the method: (§1)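 Approximately 10 days after treatment in the greenhouse, plants were compared with untreated controls and given a 0–100 visual injury rating. Applications: preemergence directed soil spray; postemergence on 2–10 cm plants at the one- to two-leaf stage.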
# pigweed = assay: Test A pre-/postemergence herbicide test; type: in vivo, Amaranthus retroflexus
# Summary of the method: as §1
# corn [1] = assay: Test A pre-/postemergence herbicide test; type: in vivo, Zea mays; conditions: Postemergence
# Summary of the method: as §1
# sedge, umbrella = assay: Test B flooded paddy test; type: in vivo, Cyperus difformis; conditions: 500 g ai/ha, Flood; scale of 0 to 100 where 0 is no effect and 100 is complete control
# Summary of the method: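 Visual ratings from 0, meaning no effect, up to 100, meaning complete control, were made by comparison with untreated controls 13 to 15 days after treatment. Test compounds went straight into floodwater standing 3 cm over the soil of pots holding 2-leaf seedlings.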
# ryegrass, Italian = assay: Test C pre-/postemergence herbicide test; type: in vivo, Lolium multiflorum
# Summary of the method: (§2)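 Plants grown and held in a greenhouse for 13 to 15 days post-spray, then rated 0–100 by visual comparison with controls. Pre treatments targeted seeds in loam and sand; post treatments targeted 1- to 4-leaf plants in peat-based potting medium.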
# galium = assay: Test C pre-/postemergence herbicide test; type: in vivo, Galium aparine; conditions: Preemergence; for Plant response rating, Galium: 125 g ai/ha, scale 0 to 100; for Plant response rating (scale of 0 to 100), Galium: 250 g ai/ha
# Summary of the method: as §2
# corn [2] = assay: Test C pre-/postemergence herbicide test; type: in vivo, Zea mays
# Summary of the method: as §2
# foxtail, giant = assay: Test C pre-/postemergence herbicide test; type: in vivo, Setaria faberii
# Summary of the method: as §2
# ragweed = assay: Test C pre-/postemergence herbicide test; type: in vivo, Ambrosia elatior
# Summary of the method: as §2
# soybean = assay: Test C pre-/postemergence herbicide test; type: in vivo, Glycine max
# Summary of the method: as §2
# oat, wild = assay: Test C pre-/postemergence herbicide test; type: in vivo, Avena fatua; conditions: Postemergence
# Summary of the method: as §2
# [3] = Postemergence, 125 g ai/ha, visual rating on 0 to 100 scale (0 no effect, 100 complete control), approx. 10 days
# [4] = Postemergence, 500 g ai/ha, 0 to 100 scale (0 no effect, 100 complete control)
# [5] = Preemergence, 125 g ai/ha, 0 to 100 scale where 0 is no effect and 100 is complete control
# [6] = Preemergence, 500 g ai/ha, visual rating on 0 to 100 scale (0 no effect, 100 complete control)
# [7] = 125 g ai/ha, visual rating on 0 to 100 scale (0 no effect, 100 complete control), approx. 10 days
# [8] = 500 g ai/ha, 0 to 100 scale (0 no effect, 100 complete control)
# [9] = Postemergence, 31 g ai/ha, scale 0 to 100 (0 no effect, 100 complete control)
# [10] = Postemergence, 62 g ai/ha, scale 0 (no effect) to 100 (complete control)
# [11] = Postemergence, 125 g ai/ha, scale 0 to 100 (0 no effect, 100 complete control)
# [12] = Postemergence, 250 g ai/ha, scale 0 to 100 (0 no effect, 100 complete control)
# [13] = Preemergence, 62 g ai/ha, scale 0 to 100 (0 no effect, 100 complete control)
# [14] = Preemergence, 125 g ai/ha, scale 0 to 100
# [15] = 31 g ai/ha, scale 0 to 100, 0 is no effect and 100 is complete control
# [16] = 62 g ai/ha, scale 0 to 100 (0 no effect, 100 complete control)
# [17] = Preemergence, 31 g ai/ha, scale 0 to 100, 0 is no effect and 100 is complete control
# [18] = 31 g ai/ha, scale 0 to 100 (0 no effect, 100 complete control)
# [19] = 62 g ai/ha, scale 0 (no effect) to 100 (complete control)
# [20] = 125 g ai/ha, scale 0 to 100 (0 no effect, 100 complete control)
# [21] = 250 g ai/ha, scale 0 to 100 (0 no effect, 100 complete control)
smiles,measurement,setting,value
O=C1NCC(c2cccc(C(F)(F)F)c2)C1C(=O)Nc1ccc(F)c(F)c1F (stereo not shown) [Compound 315],"Plant response rating, Barnyardgrass",barnyardgrass; [3],90
same,"Plant response rating, Barnyardgrass",barnyardgrass; [4],90
same,"Plant response rating, Barnyardgrass",barnyardgrass; [5],90
same,Barnyardgrass plant response rating,barnyardgrass; [6],90
same,"Plant response rating, Pigweed",pigweed; [3],30
same,"Plant response rating, Pigweed",pigweed; [4],50
same,"Plant response rating, Pigweed",pigweed; [5],30
same,Pigweed plant response rating,pigweed; [6],30
same,"Plant response rating, Corn",corn [1]; [7],70
same,"Plant response rating, Corn",corn [1]; [8],80
same,"Plant response rating, Sedge, Umbrella","sedge, umbrella",0
same,"Plant response rating, Ryegrass, Italian","ryegrass, Italian; [9]",0
same,"Plant response rating, Ryegrass, Italian","ryegrass, Italian; [10]",5
same,"Plant response rating, Ryegrass, Italian","ryegrass, Italian; [11]",15
same,"Plant response rating, Ryegrass, Italian","ryegrass, Italian; [12]",45
same,"Ryegrass, Italian plant response rating","ryegrass, Italian; [13]",50
same,"Plant response rating, Ryegrass, Italian","ryegrass, Italian; [14]",50
same,"Plant response rating (scale of 0 to 100), Ryegrass, Italian","ryegrass, Italian; Preemergence, 250 g ai/ha",50
same,Galium plant response rating,galium; [15],90
same,Galium plant response rating,galium; [16],80
same,"Plant response rating, Galium",galium,80
same,"Plant response rating (scale of 0 to 100), Galium",galium,90
same,"Plant response rating, Corn",corn [2]; [9],0
same,"Plant response rating, Corn",corn [2]; [10],0
same,"Plant response rating, Corn",corn [2]; [11],10
same,"Plant response rating, Corn",corn [2]; [12],60
same,Corn plant response rating,corn [2]; [17],50
same,Corn plant response rating,corn [2]; [13],80
same,"Plant response rating, Corn",corn [2]; [14],80
same,"Plant response rating (scale of 0 to 100), Corn","corn [2]; Preemergence, 250 g ai/ha",85
same,"Plant response rating, Foxtail, Giant","foxtail, giant; [9]",0
same,"Plant response rating, Foxtail, Giant","foxtail, giant; [10]",40
same,"Plant response rating, Foxtail, Giant","foxtail, giant; [11]",85
same,"Plant response rating, Foxtail, Giant","foxtail, giant; [12]",85
same,"Foxtail, Giant plant response rating","foxtail, giant; [17]",90
same,"Foxtail, Giant plant response rating","foxtail, giant; [13]",90
same,"Plant response rating, Foxtail, Giant","foxtail, giant; [14]",95
same,"Plant response rating (scale of 0 to 100), Foxtail, Giant","foxtail, giant; Preemergence, 250 g ai/ha",98
same,"Plant response rating, Ragweed",ragweed; [9],0
same,"Plant response rating, Ragweed",ragweed; [10],20
same,"Plant response rating, Ragweed",ragweed; [11],65
same,"Plant response rating, Ragweed",ragweed; [12],70
same,Ragweed plant response rating,ragweed; [13],20
same,"Plant response rating, Ragweed",ragweed; [14],50
same,"Plant response rating (scale of 0 to 100), Ragweed","ragweed; Preemergence, 250 g ai/ha",80
same,"Plant response rating, Soybean",soybean; [9],0
same,"Plant response rating, Soybean",soybean; [10],0
same,"Plant response rating, Soybean",soybean; [11],0
same,"Plant response rating, Soybean",soybean; [12],15
same,Soybean plant response rating,soybean; [13],0
same,"Plant response rating, Soybean",soybean; [14],0
same,"Plant response rating (scale of 0 to 100), Soybean","soybean; Preemergence, 250 g ai/ha",0
same,"Plant response rating, Oat, Wild","oat, wild; [18]",0
same,"Plant response rating, Oat, Wild","oat, wild; [19]",0
same,"Plant response rating, Oat, Wild","oat, wild; [20]",0
same,"Plant response rating, Oat, Wild","oat, wild; [21]",0
O=C1NCC(c2cccc(C(F)(F)F)c2)C1C(=O)Nc1cccc(Cl)c1F (stereo not shown) [Compound 316],"Plant response rating, Barnyardgrass",barnyardgrass; [3],80
same,"Plant response rating, Barnyardgrass",barnyardgrass; [4],90
same,"Plant response rating, Barnyardgrass",barnyardgrass; [5],80
same,Barnyardgrass plant response rating,barnyardgrass; [6],90
same,"Plant response rating, Pigweed",pigweed; [3],0
same,"Plant response rating, Pigweed",pigweed; [4],20
same,"Plant response rating, Pigweed",pigweed; [5],20
same,Pigweed plant response rating,pigweed; [6],20
same,"Plant response rating, Corn",corn [1]; [7],60
same,"Plant response rating, Corn",corn [1]; [8],80
same,"Plant response rating, Sedge, Umbrella","sedge, umbrella",0
same,"Plant response rating, Ryegrass, Italian","ryegrass, Italian; [9]",0
same,"Plant response rating, Ryegrass, Italian","ryegrass, Italian; [10]",0
same,"Plant response rating, Ryegrass, Italian","ryegrass, Italian; [11]",0
same,"Plant response rating, Ryegrass, Italian","ryegrass, Italian; [12]",5
same,"Ryegrass, Italian plant response rating","ryegrass, Italian; [13]",0
same,"Plant response rating, Ryegrass, Italian","ryegrass, Italian; [14]",10
same,Galium plant response rating,galium; [15],0
same,Galium plant response rating,galium; [16],0
same,"Plant response rating, Galium",galium,0
same,"Plant response rating (scale of 0 to 100), Galium",galium,90
same,"Plant response rating, Corn",corn [2]; [9],0
same,"Plant response rating, Corn",corn [2]; [10],0
same,"Plant response rating, Corn",corn [2]; [11],0
same,"Plant response rating, Corn",corn [2]; [12],0
same,Corn plant response rating,corn [2]; [17],15
same,Corn plant response rating,corn [2]; [13],75
same,"Plant response rating, Corn",corn [2]; [14],65
same,"Plant response rating (scale of 0 to 100), Corn","corn [2]; Preemergence, 250 g ai/ha",75
same,"Plant response rating, Foxtail, Giant","foxtail, giant; [9]",5
same,"Plant response rating, Foxtail, Giant","foxtail, giant; [10]",5
same,"Plant response rating, Foxtail, Giant","foxtail, giant; [11]",85
same,"Plant response rating, Foxtail, Giant","foxtail, giant; [12]",85
same,"Foxtail, Giant plant response rating","foxtail, giant; [17]",85
same,"Foxtail, Giant plant response rating","foxtail, giant; [13]",90
same,"Plant response rating, Foxtail, Giant","foxtail, giant; [14]",90
same,"Plant response rating (scale of 0 to 100), Foxtail, Giant","foxtail, giant; Preemergence, 250 g ai/ha",95
same,"Plant response rating, Ragweed",ragweed; [9],45
same,"Plant response rating, Ragweed",ragweed; [10],0
same,"Plant response rating, Ragweed",ragweed; [11],35
same,"Plant response rating, Ragweed",ragweed; [12],65
same,Ragweed plant response rating,ragweed; [13],0
same,"Plant response rating, Ragweed",ragweed; [14],10
same,"Plant response rating, Soybean",soybean; [9],0
same,"Plant response rating, Soybean",soybean; [10],0
same,"Plant response rating, Soybean",soybean; [11],0
same,"Plant response rating, Soybean",soybean; [12],0
same,Soybean plant response rating,soybean; [13],0
same,"Plant response rating, Soybean",soybean; [14],0
same,"Plant response rating, Oat, Wild","oat, wild; [18]",0
same,"Plant response rating, Oat, Wild","oat, wild; [19]",0
same,"Plant response rating, Oat, Wild","oat, wild; [20]",5
same,"Plant response rating, Oat, Wild","oat, wild; [21]",30

# Source: US10294202B2, “Pyrrolidinones as herbicides” (FMC Corporation, priority 2013, dated 2019)
